4 compounds from patent publication US20250179047A1, “5-[7-(3,4-DIHYDRO-1H-ISOQUINOLINE-2-CARBONYL)-1,2,3,4 TETRAHYDROISOQUINOLIN-6-YL]-1H-PYRROLE-3-CARBOXAMIDE DERIVATIVES, PHARMACEUTICAL COMPOSITIONS CONTAINING THEM AND THEIR USES AS PRO-APOPTOTIC AGENTS” (LES LABORATOIRES SERVIER, priority 2022, published 2025) can be followed below.

Assay [1] has as its target BCLXL WT (Homo sapiens (Human), UniProt Q07817). Kind of assay: TR-FRET competitive binding assay, BCLXL WT. Conditions: for Ki: BCLXL WT, Ki determined from IC50, read-out: TR_FRET EKI BclxL; for TR_FRET EKI BCLxL/WT selectivty ratio: ratio Ki BCLxL / Ki BCL2 WT. The essentials:
(§1)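 Competitive TR-FRET displacement of fluorescein-PUMA peptide (2 or 20 nM) from 0.5 nM terbium-labelled N-terminal Halo-fusion BCL2 (1-207, wild type or mutant) or BCLXL (2-196), expressed in E. coli. Buffer 50 mM Hepes pH 7.5, 150 mM NaCl, 5% DMSO; 2 h at 23°C. 520/495 nm ratio fitted over 11 points for IC50, converted to Ki.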
In general terms: Time-resolved FRET reads energy transfer from a long-lived donor to a nearby acceptor.

In assay [2] the test system is KMS-12-PE Bcl-2 WT. Briefly: In vitro cytotoxicity CellTiter-Glo 48 h, KMS-12-PE Bcl-2 WT. The assay is classed as cell-based. Conditions: Homo sapiens, KMS-12-PE, C50 = concentration needed to reach 50% of the cellular viability. The essentials:
(§2)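 Viability measured by CellTiter-Glo luminescence after 48 h compound exposure (11-point curve, 37 °C, 5% CO2). Cells: KMS-12-PE transduced with wild-type or G101V-mutant Bcl-2, FACS-sorted for TagRFP. Reported C50 = concentration reaching 50% cellular viability.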
For orientation: In ATP-based viability assays light output follows the ATP content of the culture.

In assay [3] the target is BCL2 D103Y (Homo sapiens, UniProt P10415, D103Y). Kind of assay: TR-FRET competitive binding assay, BCL2 D103Y. Particulars: Ki determined from IC50, read-out: TR_FRET EKI_Bcl2 D103Y. The essentials: as §1
Assay [4] concerns the target BCL2 WT (Homo sapiens (Human), UniProt P10415). Briefly: TR-FRET competitive binding assay, BCL2 WT. Conditions: Ki determined from IC50, read-out: TR_FRET EKI_Bcl2 WT. In a few lines: as §1
The subject of assay [5] is KMS-12-PE Bcl-2 G101V. Briefly: In vitro cytotoxicity CellTiter-Glo 48 h, KMS-12-PE Bcl-2 G101V. In kind it is cell-based. Conditions: for Ratio (G101V/WT): C50 KMS-12-PE Bcl-2 G101V over C50 KMS-12-PE Bcl-2 WT; for IC50: Homo sapiens, KMS-12-PE, 48 h, CellTiter-Glo, C50 = concentration needed to reach 50% of the cellular viability. In a few lines:
as §2

The target of assay [6] is BCL2 G101V (Homo sapiens, UniProt P10415, G101V). Briefly: TR-FRET competitive binding assay, BCL2 G101V. Conditions: BCL2 G101V; Ki determined from IC50; read-out: TR_FRET EKI_Bcl2 G101V. The essentials:
as §1

Assay [7] deals with BCL2 G101V. Briefly: TR-FRET competitive binding assay, BCL2 G101V. The arrangement: species or system human. Conditions: ratio Ki BCL2 G101V / Ki BCL2 WT. In a few lines:
as §1

SMILES strings stand for the structures.

BCLXL WT, sequence (Q07817 other isoform, or with tags, fused parts or gaps): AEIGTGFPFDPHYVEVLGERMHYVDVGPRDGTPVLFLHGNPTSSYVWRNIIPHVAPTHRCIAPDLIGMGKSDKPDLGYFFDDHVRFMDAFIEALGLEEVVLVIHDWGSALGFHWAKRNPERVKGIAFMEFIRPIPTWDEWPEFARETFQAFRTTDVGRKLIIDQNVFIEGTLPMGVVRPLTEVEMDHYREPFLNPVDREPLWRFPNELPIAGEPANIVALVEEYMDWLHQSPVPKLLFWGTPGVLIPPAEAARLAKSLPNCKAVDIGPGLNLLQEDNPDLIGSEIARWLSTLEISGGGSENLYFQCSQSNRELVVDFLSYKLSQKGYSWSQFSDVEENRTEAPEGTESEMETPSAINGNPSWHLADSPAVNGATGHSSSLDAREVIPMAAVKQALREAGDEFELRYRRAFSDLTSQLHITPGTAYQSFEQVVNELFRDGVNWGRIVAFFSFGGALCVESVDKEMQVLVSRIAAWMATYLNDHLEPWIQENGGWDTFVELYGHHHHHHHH

By IC50 is commonly meant the concentration that inhibits the measured activity by half. Lower therefore signals higher potency. As to `Cc1c(C(=O)N(c2ccc(O)cc2)c2cc(C#N)n(C(F)F)c2C)cc(-c2cc3c(cc2C(=O)N2Cc4ccccc4C[C@H]2CN2CCCCC2)CN(C(=O)Cc2ccc(OCCN4CCN(CCF)CC4)cc2F)CC3)n1C` [Example 159, N-[5-cyano-1-(difluoromethyl)-2-methylpyrrol-3-yl]-5-{2-[2-(2-fluoro-4-{2-[4-(2-fluoroethyl)piperazin-1-yl]ethoxy}phenyl)acetyl]-7-{[(3S)-3-(piperidin-1-ylmethyl)-3,4-dihydro-1H-isoquinolin-2-yl]carbonyl}-3,4-dihydro-1H-isoquinolin-6-yl}-N-(4-hydroxyphenyl)-1,2-dimethylpyrrole-3-carboxamide], the Ki turned out to be 3.7 nM in assay [1], 0.13 nM in assay [3], 0.05 nM in assay [4] and 0.3 nM in assay [6]. The “TR_FRET EKI BCLxL/WT selectivty ratio” value in assay [1] was found to be 69.8. Moreover, the IC50 in assay [2] came to 0.0079 µM; in assay [5], 0.0392 µM. Also, in assay [5], the “Ratio (G101V/WT)” value was determined as 4.9873. Besides, the “TR_FRET EKI G101V/WT selectivty ratio” value in assay [7] is recorded as 5.1.
Take `Cc1c(C(=O)N(c2ccc(O)cc2)c2cc(C#N)n(C(F)F)c2C)cc(-c2cc3c(cc2C(=O)N2Cc4ccccc4C[C@H]2CN2CCCCC2)CN(C(=O)Cc2ccc(OCCN4CCN(C)CC4)cc2F)CC3)n1C` [Example 160, N-[5-cyano-1-(difluoromethyl)-2-methylpyrrol-3-yl]-5-[2-(2-{2-fluoro-4-[2-(4-methylpiperazin-1-yl)ethoxy]phenyl}acetyl)-7-{[(3S)-3-(piperidin-1-ylmethyl)-3,4-dihydro-1H-isoquinolin-2-yl]carbonyl}-3,4-dihydro-1H-isoquinolin-6-yl]-N-(4-hydroxyphenyl)-1,2-dimethylpyrrole-3-carboxamide]: the Ki in assay [1] turned out to be 1.5 nM; in assay [3], 0.18 nM; in assay [4], 0.03 nM; in assay [6] it was 0.2 nM. Also, the “TR_FRET EKI BCLxL/WT selectivty ratio” value in assay [1] turned out to be 55.6. For the same compound, the IC50 in assay [2] amounted to 0.0113 µM; in assay [5], 0.043 µM. In assay [5], the “Ratio (G101V/WT)” value is 3.8053. For the same compound, the “TR_FRET EKI G101V/WT selectivty ratio” value in assay [7] amounted to 6.3.
`Cc1c(N(C(=O)c2cc(-c3cc4c(cc3C(=O)N3Cc5ccccc5C[C@H]3CN3CCCCC3)CN(C(=O)Cc3ccc(OCCN5CCOCC5)cc3Cl)CC4)n(C)c2C)c2ccc(O)cc2)cc(C#N)n1C` [Example 161, 5-[2-[2-[2-chloro-4-(2-morpholinoethoxy)phenyl]acetyl]-7-[(3S)-3-(1-piperidylmethyl)-3,4-dihydro-1H-isoquinoline-2-carbonyl]-3,4-dihydro-1H-isoquinolin-6-yl]-N-(5-cyano-1,2-dimethyl-pyrrol-3-yl)-N-(4-hydroxyphenyl)-1,2-dimethyl-pyrrole-3-carboxamide]: the Ki in assay [1] worked out at 2.9 nM; in assay [3], 0.14 nM; in assay [4], 0.05 nM; in assay [6] it was 0.3 nM. In assay [1], the “TR_FRET EKI BCLxL/WT selectivty ratio” value is recorded as 61.7. Further, the IC50 was determined as 0.0092 µM in assay [2] and 0.0427 µM in assay [5]. Further, the “Ratio (G101V/WT)” value in assay [5] worked out at 4.6212. In assay [7], the “TR_FRET EKI G101V/WT selectivty ratio” value is 7.0.
In the case of `Cc1c(C(=O)N(c2ccc(O)cc2)c2cc(C#N)n(C(F)F)c2C)cc(-c2cc3c(cc2C(=O)N2Cc4ccccc4C[C@H]2CN2CCCCC2)CN(C(=O)Cc2ccc(OCCN(C)C4CC4)cc2)CC3)n1C` [Example 163, N-[5-cyano-1-(difluoromethyl)-2-methyl-pyrrol-3-yl]-5-[2-[2-[4-[2-[cyclopropyl(methyl)amino]ethoxy]phenyl]acetyl]-7-[(3S)-3-(1-piperidylmethyl)-3,4-dihydro-1H-isoquinoline-2-carbonyl]-3,4-dihydro-1H-isoquinolin-6-yl]-N-(4-hydroxyphenyl)-1,2-dimethyl-pyrrole-3-carboxamide], the Ki is 8.3 nM in assay [1], 0.64 nM in assay [3], 0.16 nM in assay [4] and 0.8 nM in assay [6]. Also, the “TR_FRET EKI BCLxL/WT selectivty ratio” value in assay [1] is 51.9. For the same compound, the 50% inhibitory concentration (IC50) in assay [2] was found to be 0.01 µM; in assay [5], 0.0597 µM. Moreover, the “Ratio (G101V/WT)” value in assay [5] is given as 5.97. Moreover, in assay [7], the “TR_FRET EKI G101V/WT selectivty ratio” value came out at 5.3.
